Test system: LNCaP prostate cancer cell
Test: LNCaP cell viability (CellTiter-Glo)
Format: cell-based
Settings: 3 days, 3-fold serial dilution from 10 μM; FIG. 4
Experimental: LNCaP cells seeded in 96-well plates were treated with 10 μM GNE-781 or selected bivalent compounds, i.e. P-001, P-002, and P-019, following a 12-point 3-fold serial dilution. Three days after treatment, cell viability was determined using the CellTiter-Glo kit (Promega) following manufacturer's instructions. Cell viability was normalized to the mean values of 3 replicates of untreated cells. Dose-dependent response was analyzed following the least-squares non-linear regression method using the GraphPad Prism 5.0 software.
LNCaP (clone FGC), 22RV1 and other cells were cultured at 37° C. with 5% CO 2 in RPMI 1640 Medium supplemented with 10% fetal bovine serum. Cells were authenticated using the short tandem repeat (STR) assays. Mycoplasma test results were negative.
Cells were seeded at a density of 5000 cells per well in 96-well assay plates and treated with test compounds following a 12-point 3-fold serial dilution. Three days later, cell viability was determined using the CellTiter-Glo assay kit according to the manufactureR's instructions. The dose-response curves were determined and IC50 values were calculated using the GraphPad Prism software following a nonlinear regression (least squares fit) method.

Compound | viability of LNCaP cells
CNC(=O)N1CCc2c(c(N3CCCc4cc(-c5cnn(C)c5)c(C(F)F)cc43)nn2C2CCN(C(=O)CNc3ccc4c(c3)C(=O)N(C3CCC(=O)NC3=O)C4=O)CC2)C1 (stereo not drawn) [P-001, 3-(7-(difluoromethyl)-6-(1-methyl-1H-pyrazol-4-yl)-3,4-dihydroquinolin-1(2H)-yl)-1-(1-((2-(2,6-dioxopiperidin-3-yl)-1,3-dioxoisoindolin-5-yl)glycyl)piperidin-4-yl)-N-methyl-1,4,6,7-tetrahydro-5H-pyrazolo[4,3-c]pyridine-5-carboxamide] | dose-dependently suppressed viability of LNCaP cells

Same assay, conditions: Homo sapiens, 72 h; LNCaP cell viability, 3 days, CellTiter-Glo; Table 2

Compound | IC50
CNC(=O)N1CCc2c(c(N3CCCc4cc(-c5cnn(CC(=O)NCCCCCCCCCCC(=O)N[C@H](C(=O)N6CC(O)C[C@H]6C(=O)NCc6ccc(-c7scnc7C)cc6)C(C)(C)C)c5)c(C(F)F)cc43)nn2C2CCOCC2)C1 (stereo in doubt) [P-050, 3-(7-(difluoromethyl)-6-(1-(2-((11-(((S)-1-((2S,4R)-4-hydroxy-2-((4-(4-methylthiazol-5-yl)benzyl)carbamoyl)pyrrolidin-1-yl)-3,3-dimethyl-1-oxobutan-2-yl)amino)-11-oxoundecyl)amino)-2-oxoethyl)-1H-pyrazol-4-yl)-3,4-dihydroquinolin-1(2H)-yl)-N-methyl-1-(tetrahydro-2H-pyran-4-yl)-1,4,6,7-tetrahydro-5H-pyrazolo[4,3-c]pyridine-5-carboxamide] | 111 nM

Same assay, conditions: Homo sapiens, 72 h; LNCaP cell viability, 3 days, CellTiter-Glo; Table 3

Compound | IC50
CC(=O)N1CCc2c(c(N3CCCc4cc(-c5cnn(C)c5)c(C(F)F)cc43)nn2C2CCN(CCCNC(=O)CNc3cccc4c3C(=O)N(C3CCC(=O)NC3=O)C4=O)CC2)C1 (stereo not drawn) [P-124, N-(3-(4-(5-acetyl-3-(7-(difluoromethyl)-6-(1-methyl-1H-pyrazol-4-yl)-3,4-dihydroquinolin-1(2H)-yl)-4,5,6,7-tetrahydro-1H-pyrazolo[4,3-c]pyridin-1-yl)piperidin-1-yl)propyl)-2-((2-(2,6-dioxopiperidin-3-yl)-1,3-dioxoisoindolin-4-yl)amino)acetamide] | > 1000 nM

Same assay, conditions: Homo sapiens, 72 h; LNCaP cell viability, 3 days, CellTiter-Glo; Table 4

IC50 | Compound
> 500 nM | CC(=O)N1CCc2c(c(N3CCCc4cc(-c5cnn(C)c5)c(C(F)F)cc43)nn2C2CCN(CCN3CCNC(COc4cccc5c4C(=O)N(C4CCC(=O)NC4=O)C5=O)C3)CC2)C1 (stereo not drawn) [P-197, 4-((4-(2-(4-(5-acetyl-3-(7-(difluoromethyl)-6-(1-methyl-1H-pyrazol-4-yl)-3,4-dihydroquinolin-1(2H)-yl)-4,5,6,7-tetrahydro-1H-pyrazolo[4,3-c]pyridin-1-yl)piperidin-1-yl)ethyl)piperazin-2-yl)methoxy)-2-(2,6-dioxopiperidin-3-yl)isoindoline-1,3-dione]
> 500 nM | CC(=O)N1CCc2c(c(N3CCCc4cc(-c5cnn(C)c5)c(C(F)F)cc43)nn2C2CCN(C(=O)CCCN3CCN(CC(=O)Nc4cccc(NC5CCC(=O)NC5=O)c4)CC3)CC2)C1 (stereo not drawn) [P-259, 2-(4-(4-(4-(5-acetyl-3-(7-(difluoromethyl)-6-(1-methyl-1H-pyrazol-4-yl)-3,4-dihydroquinolin-1(2H)-yl)-4,5,6,7-tetrahydro-1H-pyrazolo[4,3-c]pyridin-1-yl)piperidin-1-yl)-4-oxobutyl)piperazin-1-yl)-N-(3-((2,6-dioxopiperidin-3-yl)amino)phenyl)acetamide]
325 nM | CC(=O)N1CCc2c(c(N3CCCc4cc(-c5cnn(C)c5)c(C(F)F)cc43)nn2C2CCN(C(=O)CCCN3CCC(COc4cccc5c4n(C)c(=O)n5C4CCC(=O)NC4=O)CC3)CC2)C1 (stereo not drawn) [P-210, 3-(4-((1-(4-(4-(5-Acetyl-3-(7-(difluoromethyl)-6-(1-methyl-1H-pyrazol-4-yl)-3,4-dihydroquinolin-1(2H)-yl)-4,5,6,7-tetrahydro-1H-pyrazolo[4,3-c]pyridin-1-yl)piperidin-1-yl)-4-oxobutyl)piperidin-4-yl)methoxy)-3-methyl-2-oxo-2,3-dihydro-1H-benzo[d]imidazol-1-yl)piperidine-2,6-dione]

Second part, the compound before the results:

Compound | IC50
CC(=O)N1CCc2c(c(N3CCCc4cc(-c5cnn(C)c5)c(C(F)F)cc43)nn2C2CCN(C(=O)CCC3CCN(CC(=O)Nc4cccc(NC5CCC(=O)NC5=O)c4)CC3)CC2)C1 (stereo not drawn) [P-261, 2-(4-(3-(4-(5-acetyl-3-(7-(difluoromethyl)-6-(1-methyl-1H-pyrazol-4-yl)-3,4-dihydroquinolin-1(2H)-yl)-4,5,6,7-tetrahydro-1H-pyrazolo[4,3-c]pyridin-1-yl)piperidin-1-yl)-3-oxopropyl)piperidin-1-yl)-N-(3-((2,6-dioxopiperidin-3-yl)amino)phenyl)acetamide] | > 500 nM
CC(=O)N1CCc2c(c(N3CCCc4cc(-c5cnn(C)c5)c(C(F)F)cc43)nn2C2CCN(C(=O)CC3CCN(CC(=O)Nc4cccc(NC5CCC(=O)NC5=O)c4)CC3)CC2)C1 (stereo not drawn) [P-260, 2-(4-(2-(4-(5-acetyl-3-(7-(difluoromethyl)-6-(1-methyl-1H-pyrazol-4-yl)-3,4-dihydroquinolin-1(2H)-yl)-4,5,6,7-tetrahydro-1H-pyrazolo[4,3-c]pyridin-1-yl)piperidin-1-yl)-2-oxoethyl)piperidin-1-yl)-N-(3-((2,6-dioxopiperidin-3-yl)amino)phenyl)acetamide] | > 500 nM
CC(=O)N1CCc2c(c(N3CCCc4cc(-c5cnn(C)c5)c(C(F)F)cc43)nn2C2CCN(C(=O)CCCCCCCC(=O)Nc3cccc(NC4CCC(=O)NC4=O)c3)CC2)C1 (stereo not drawn) [P-263, 9-(4-(5-Acetyl-3-(7-(difluoromethyl)-6-(1-methyl-1H-pyrazol-4-yl)-3,4-dihydroquinolin-1(2H)-yl)-4,5,6,7-tetrahydro-1H-pyrazolo[4,3-c]pyridin-1-yl)piperidin-1-yl)-N-(3-((2,6-dioxopiperidin-3-yl)amino)phenyl)-9-oxononanamide] | > 500 nM
CC(=O)N1CCc2c(c(N3CCCc4cc(-c5cnn(C)c5)c(C(F)F)cc43)nn2C2CCN(CCN3CCOC(CNc4cccc5c4CN(C4CCC(=O)NC4=O)C5=O)C3)CC2)C1 (stereo not drawn) [P-199, 3-(4-(((4-(2-(4-(5-acetyl-3-(7-(difluoromethyl)-6-(1-methyl-1H-pyrazol-4-yl)-3,4-dihydroquinolin-1(2H)-yl)-4,5,6,7-tetrahydro-1H-pyrazolo[4,3-c]pyridin-1-yl)piperidin-1-yl)ethyl)morpholin-2-yl)methyl)amino)-1-oxoisoindolin-2-yl)piperidine-2,6-dione] | > 500 nM
CC(=O)N1CCc2c(c(N3CCCc4cc(-c5cnn(C)c5)c(C(F)F)cc43)nn2C2CCN(C(=O)CN3CCN(CC#Cc4cccc5c4n(C)c(=O)n5C4CCC(=O)NC4=O)CC3)CC2)C1 (stereo not drawn) [P-226, 3-(4-(3-(4-(2-(4-(5-Acetyl-3-(7-(difluoromethyl)-6-(1-methyl-1H-pyrazol-4-yl)-3,4-dihydroquinolin-1(2H)-yl)-4,5,6,7-tetrahydro-1H-pyrazolo[4,3-c]pyridin-1-yl)piperidin-1-yl)-2-oxoethyl)piperazin-1-yl)prop-1-yn-1-yl)-3-methyl-2-oxo-2,3-dihydro-1H-benzo[d]imidazol-1-yl)piperidine-2,6-dione] | 398 nM
CC(=O)N1CCc2c(c(N3CCCc4cc(-c5cnn(C)c5)c(C(F)F)cc43)nn2C2CCN(CCN3CCC(COc4cccc5c4n(C)c(=O)n5C4CCC(=O)NC4=O)CC3)CC2)C1 (stereo not drawn) [P-255, 3-(4-((1-(2-(4-(5-Acetyl-3-(7-(difluoromethyl)-6-(1-methyl-1H-pyrazol-4-yl)-3,4-dihydroquinolin-1(2H)-yl)-4,5,6,7-tetrahydro-1H-pyrazolo[4,3-c]pyridin-1-yl)piperidin-1-yl)ethyl)piperidin-4-yl)methoxy)-3-methyl-2-oxo-2,3-dihydro-1H-benzo[d]imidazol-1-yl)piperidine-2,6-dione] | > 500 nM

From patent US20240100170A1, “CYCLIC-AMP RESPONSE ELEMENT BINDING PROTEIN (CBP) AND/OR ADENOVIRAL E1A BINDING PROTEIN OF 300 KDA (P300) DEGRADATION COMPOUNDS AND METHODS OF USE” (CULLGEN (SHANGHAI), INC., priority 2020, published 2024)
